The text below walks through data of paper PMC3586143 (Drugs in R&D, 2012).

A short description of one data set: clinical. The conditions noted are these: male, human, in vivo, po, 200 mg/day; for AUC: AUC24, gmean; for Cmax: gmean.
For data set [1], the system named is vascular endothelial growth factor and epidermal growth factor. To be noted: cellular assays for VEGF and EGF; cited from earlier work.
For data set [2] the following is noted: in vivo; for tmax, median (range): 300 mg.
The conditions of data set [3]: for half-life: t½, gmean (CV%).
For data set [4], the system named is healthy male subjects. Description: Study A: safety and tolerability assessments. The format is in vivo.
The conditions of data set [5]: for increase in AUC504: vandetanib + itraconazole compared with vandetanib alone.
Data set [6] concerns healthy male subjects. Put plainly: Study B: safety and tolerability assessments. The data set is classed as in vivo.

The structures appear in SMILES notation. Where two headings read alike, the source gives them in different places.

As to `CCC(C)n1ncn(-c2ccc(N3CCN(c4ccc(OCC5COC(Cn6cncn6)(c6ccc(Cl)cc6Cl)O5)cc4)CC3)cc2)c1=O` (stereo not shown) [itraconazole, reference compound], in the data set “clinical”, the AUC was 5040 ng·h/mL and the Cmax was found to be 424 ng/mL.
Take `COc1cc2c(Nc3ccc(Br)cc3F)ncnc2cc1OCC1CC[N+](C)([O-])CC1` (stereo not shown) [vandetanib N-oxide]: the “activity relative to vandetanib (fold less active)” value in data set [1] is listed as more than 50 fold. In addition, in data set [2], the “increase in AUCct” value worked out at 126%; the “time post-dose by which plasma concentrations were nonquantifiable” value is 96 to 240 h; the “tmax, median (range)” value was 7 h.
As to `COc1cc2c(Nc3ccc(Br)cc3F)ncnc2cc1OCC1CCNCC1` [N-desmethylvandetanib], in data set [2], the “AUC504 of metabolite as % of AUC504 of vandetanib” value is listed as “≈ 7%” and the “tmax, median (range)” value worked out at 5 h.
Regarding `CC(O)C(C)n1ncn(-c2ccc(N3CCN(c4ccc(OCC5COC(Cn6cncn6)(c6ccc(Cl)cc6Cl)O5)cc4)CC3)cc2)c1=O` (stereo not shown) [hydroxy-itraconazole], in the data set “clinical”, the AUC is 7690 ng·h/mL and the peak level (Cmax) was 413 ng/mL.
For the compound `COc1cc2c(Nc3ccc(Br)cc3F)ncnc2cc1OCC1CCN(C)CC1` [vandetanib], the “median time to Cmax” value in data set [3] (both studies (A and B), vandetanib 300 mg single dose) was in the range of 5 to 6 h. For the same compound, the Tmax in data set [3] (male, human, plasma, oral, 300 mg) was determined as 6 h; in data set [5] (male, human, in vivo, 300 mg) it was 5 h. Moreover, the half-life in data set [3] (male, human, plasma, oral, 300 mg, after vandetanib 300 mg alone) is 218 h; in data set [3] (male, human, plasma, oral, after vandetanib 300 mg + rifampicin) it was 116 h. The tolerability result with healthy male subjects [4] (single dose 300 mg) and in the data set with healthy male subjects [6] (single dose 300 mg) was “well tolerated” throughout. For the same compound, in the data set with healthy male subjects [4] (vandetanib alone or in combination with rifampicin), the “change in mean corrected QT (QTC) interval” value was “no clinically important changes”. Besides, in the data set on healthy male subjects [4] (vandetanib in combination with rifampicin), the “subjects with increase from baseline in QTC interval of >60 ms” value was “One subject”. The “subjects reporting adverse events” value in the data set with healthy male subjects [4] (vandetanib in the presence of rifampicin) and with healthy male subjects [6] (vandetanib in the absence of itraconazole) was 31.3% each time. For the same compound, the entries for the “increase in AUC504” value in data set [5] and in data set [5] (listed as Vandetanib) were 9% and “about 9%”, respectively. For the same compound, the “subjects with increase from baseline in QTC of >60 ms” value in the data set with healthy male subjects [6] was “Three subjects”. Also, in the data set on healthy male subjects [6] (at each timepoint), the “increase in mean QTC interval after the dose” value was not above 20 ms.
